Laboratory results published in patent US4959361A, “Triazolo(4,3-A)(1,4)benzodiazepines and thieno (3,2-F)(1,2,4)triazolo(4,3-A)(1,4)diazepine compounds which have useful activity as platelet activating factor (PAF) antagonists” (Hoffmann-La Roche Inc., priority 1988, dated 1990).
Where two headings read alike, the source gives them in different places.

Columns and labels:
[1] = molecular target: T1, PAF-binding, dog platelets (Canis lupus familiaris, UniProt A0A8I3NSH0); assay: PAF binding assay (radiolabelled H-PAF, washed dog platelets); settings: 10 minutes at room temperature, read-out: PAF-binding IC-50
T1 construct: dog platelets; from tissue; host or cells: washed platelets from citrated dog blood
T1 sequence (A0A8I3NSH0 1-343): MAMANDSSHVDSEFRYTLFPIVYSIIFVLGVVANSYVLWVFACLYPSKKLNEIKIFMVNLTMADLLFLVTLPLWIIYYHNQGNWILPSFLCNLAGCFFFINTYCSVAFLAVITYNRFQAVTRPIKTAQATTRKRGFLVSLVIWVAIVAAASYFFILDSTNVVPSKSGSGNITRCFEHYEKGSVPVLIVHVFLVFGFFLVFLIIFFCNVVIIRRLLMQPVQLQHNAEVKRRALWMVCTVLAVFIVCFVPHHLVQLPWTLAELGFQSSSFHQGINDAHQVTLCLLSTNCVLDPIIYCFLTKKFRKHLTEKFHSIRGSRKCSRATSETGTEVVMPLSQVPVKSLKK
Description: The binding assay was done in […] polyethylene microcentrifuge tubes (Beckman) containing 50 μl of an oil mixture of 2 parts Siliconol AR200 (Serva): 1 part Silicone Fluid (Arthur H. Thoma). Buffer, standards, or analogs (150 μl total volume) were added to the tubes. Radiolabelled H-PAF (50 μl) was then added to the tubes. The reaction was started by the addition of 50 μl of dog platelets (2×10^7 platelets). The tubes were capped, inverted several times to mix, and incubated for 10 minutes at room temperature. The platelets were separated from the incubation mixture by centrifuging 1 minute in a Beckman Microfuge B centrifuge. The tip of the microfuge tube was cut off, and the platelets were washed out of the tip with 200 μl of 50% methanol (Burdick and Jackson). Aquasol (NEN, 10 ml) was added and the radioactivity in the samples was determined using an LS 8100 Beckman liquid scintillation counter linked to a Techtran tape recorder Data was processed through an in-house computer system. Alternatively, radioactivity was determined using a Searle Mark III liquid scintillation counter linked to a Iso-Data microprocessor.
(b) preparation of platelets
Blood was collected from anesthesized or unanesthesized dogs into 50 ml plastic centrifuge tubes containing 3.8% sodium citrate as the anticoagulant (1 volume of citrate/9 volumes of blood). The red cells were removed by centrifugation for 15 minutes at 600 rpm (100-125 g) at room temperature. An aliquot of the supernatant platelet rich plasma (PRP) was saved for cell counting and the remainder was acidified to pH 6.5 with 0.15M citric acid. The platelet pellet was obtained after a 10 minute centrifugation at 2000 rpm (1000 g) at room temperature. Washed platelets were prepared by resuspending the platelet pellet once with pBS containing 1 mM EDTA, centrifuging as noted, and then resuspending the platelets in 0.1% BSA pBS. An aliquot of the washed platelets was counted. Platelets used for binding assays were diluted to 2×10^7 platelets/assay tube (4×10^8 platelets/ml). platelet countinq was done using a Royco Cell-Crit 921.

[2] = test system: PAF Induced Bronchoconstriction; assay: PAF induced bronchoconstriction assay, oral testing; assay type: in vivo, guinea pig; settings: Cavia porcellus, 2 hr; for ED50: p.o., read-out: Bronchoconstriction ID-50 p.o. 2 hr; for inhibition in vivo at 3 mg/kg: Table II (*), 3 mg/kg p.o.
[3] = test system: PAF Induced Bronchoconstriction; assay: PAF induced bronchoconstriction assay, intravenous testing; assay type: in vivo, guinea pig; settings: for ED50: Cavia porcellus, iv, 1 min, i.v., 1 minute pretreatment, PAF 1 μg/kg i.v., read-out: Bronchoconstriction ID-50 i.v.; for % inhibition of bronchoconstriction: Table II (*), at 0. mg/kg i.v. (dose digit cut off)
Description: Male animals (Hartlet Strain, 400-500 g were anesthetized with urethane (2 g/kg, i.p.). Each animals' trachea was cannulated and the guinea pigs were respirated using a Harvard small animal rodent respirator (3.0 cc stroke volume, 40 breaths per min.). Tracheal pressure was recorded from a cannula inserted in the trachea and connected to a Statham pressure transducer.
The jugular vein was cannulated for administering compounds. Spontaneous breathing was arrested with succinylcholine (1.2 mg/kg, i.v.) administered 2 minutes prior to intravenous injection of platelet activating factor PAF).
For the intravenous testing, the guinea pig is given a 1-minute pretreatment with propranolol at a dose of 0.1 mg/kg intravenously. The test compound is administered with a 1 minute pretreatment prior to intravenous challenge with PAF. The animal is then challenged with a 1 μg/kg intravenous dose of PAF and the change in tracheal pressure is measured.
The change in tracheal pressure is determined by subtracting the steady state baseline achieved after administration of succinylcholine from the peak broncho. constriction seen after challenge with PAF. The mean is calculated for each test compound and compared to the mean of the control animals to give the percent inhibition of bronchoconstriction. The standard error is calculated as the standard error of the mean.

[4] = Table I, triazolothienodiazepines
[5] = po, Table I, at a dose of 0.3 mg/kg p.o.
[6] = Table II, triazolobenzodiazepines
[7] = Table II (**), at an oral dose of 0.3 mg/kg

| Compound | IC50 [1, 4] | ED50 ([3]; Table I) | IC50 [1, 6] | also measured |
| --- | --- | --- | --- | --- |
| Cc1nnc2n1-c1sc(C#CCN3C(=O)c4cccc5cccc(c45)C3=O)cc1C(c1ccccc1Cl)=NC2 | 0.012 µM | < 0.1 mg/kg |  | ED50 ([2]; po, Table I): 0.025 mg/kg |
| Cc1nnc2n1-c1sc(C#CCN3C(=O)C(=O)c4ccccc43)cc1C(c1ccccc1Cl)=NC2 | 0.007 µM | < 0.1 mg/kg |  | ED50 ([2]; po, Table I): 0.06 mg/kg |
| Cc1nnc2n1-c1sc(C#CCN3C(=O)c4cccc5cccc3c45)cc1C(c1ccccc1Cl)=NC2 | 0.005 µM | < 0.1 mg/kg |  | ED50 ([2]; po, Table I): 0.042 mg/kg |
| Cc1nnc2n1-c1sc(C#C[Si](C)(C)C)cc1C(c1ccccc1Cl)=NC2 | 0.02 µM | 0.28 mg/kg |  |  |
| C#Cc1cc2c(s1)-n1c(C)nnc1CN=C2c1ccccc1Cl | 0.01 µM | 0.02 mg/kg |  | inhibition in vivo at 0.3 mg/kg [2, 5]: 17% |
| Cc1nnc2n1-c1sc(C#CCn3cnc4ccccc43)cc1C(c1ccccc1Cl)=NC2 | 0.0045 µM |  |  | ED50 ([2]; po, Table I): 0.12 mg/kg |
| Cc1nnc2n1-c1sc(C#CCN3C(=O)Cc4ccccc43)cc1C(c1ccccc1Cl)=NC2 | 0.003 µM |  |  | ED50 ([2]; po, Table I): 0.05 mg/kg |
| Cc1nnc2n1-c1sc(C#CCN3C(=O)c4ccccc4S3(=O)=O)cc1C(c1ccccc1Cl)=NC2 | 0.004 µM |  |  | inhibition in vivo at 0.3 mg/kg [2, 5]: 27% |
| Cc1nnc2n1-c1sc(C#CCn3nc4ccccn4c3=O)cc1C(c1ccccc1Cl)=NC2 | 0.011 µM |  |  | inhibition in vivo at 0.3 mg/kg [2, 5]: 79% |
| Cc1nnc2n1-c1sc(C#CCn3ncc4ccccc43)cc1C(c1ccccc1Cl)=NC2 | 0.001 µM | 0.002 mg/kg |  | ED50 ([2]; po, Table I): 0.015 mg/kg |
| Cc1nnc2n1-c1sc(C#CCN3C(=O)COc4ccccc43)cc1C(c1ccccc1Cl)=NC2 | 0.0007 µM | 0.007 mg/kg |  | ED50 ([2]; po, Table I): 0.019 mg/kg |
| Cc1nnc2n1-c1sc(C#CCn3cnc4c3c(=O)n(C)c(=O)n4C)cc1C(c1ccccc1Cl)=NC2 | 0.02 µM | 0.043 mg/kg |  | inhibition in vivo at 0.3 mg/kg [2, 5]: 27% |
| Cc1nnc2n1-c1sc(C#CCn3c(=O)c4c(ncn4C)n(C)c3=O)cc1C(c1ccccc1Cl)=NC2 | 0.007 µM | 0.018 mg/kg |  | inhibition in vivo at 0.3 mg/kg [2, 5]: 38% |
| Cc1nnc2n1-c1sc(C#CCOc3ccccc3)cc1C(c1ccccc1Cl)=NC2 |  | 0.006 mg/kg |  | inhibition in vivo at 0.3 mg/kg [2, 5]: 67% |
| Cc1c(C)c2c(c(C)c1O)CCC(C)(C#Cc1cc3c(s1)-n1c(C)nnc1CN=C3c1ccccc1Cl)O2 (centres unmarked) | 0.045 µM | 0.027 mg/kg |  |  |
| Cc1nnc2n1-c1sc(C#Cc3ccccc3)cc1C(c1ccccc1Cl)=NC2 | 0.1 µM | > 0.1 mg/kg |  |  |
| Cc1nnc2n1-c1sc(C#CCn3c(=O)c4ccccc4c4ccccc43)cc1C(c1ccccc1Cl)=[N+]([O-])C2 | 0.015 µM | 0.017 mg/kg |  |  |
| Cc1nnc2n1-c1sc(C#CCn3c(=O)c4ccccc4c4ccccc43)cc1C(c1ccccc1Cl)=NC2O (centres unmarked) | 0.025 µM | 0.022 mg/kg |  |  |
| Cc1nnc2n1-c1sc(C#CCn3c(=O)c4ccccc4c(=O)c4ccccc43)cc1C(c1ccccc1Cl)=NC2 |  | 0.008 mg/kg |  | ED50 ([2]; po, Table I): 0.026 mg/kg |
| Cc1nnc2n1-c1sc(C#CCN3C(=O)COc4cc(F)ccc43)cc1C(c1ccccc1Cl)=NC2 |  | 0.005 mg/kg |  | ED50 ([2]; po, Table I): 0.016 mg/kg |
| Cc1nnc2n1-c1sc(C#CCN3CCc4ccccc4C3=O)cc1C(c1ccccc1Cl)=NC2 |  | 0.008 mg/kg |  | ED50 ([2]; po, Table I): 0.016 mg/kg |
| Cc1nnc2n1-c1sc(C#CCn3c(=O)c4cc(Cl)ccc4c4ccc(Cl)cc43)cc1C(c1ccccc1Cl)=NC2 |  | 0.008 mg/kg |  |  |
| Cc1nnc2n1-c1sc(C#CCn3c4ccccc4c(=O)c4ccccc43)cc1C(c1ccccc1Cl)=NC2 |  | 0.01 mg/kg |  |  |
| Cc1nnc2n1-c1ccc(C#CCN3C(=O)c4cccc5cccc(c45)C3=O)cc1C(c1ccccc1Cl)=NC2 |  |  |  | inhibition in vivo at 3 mg/kg ([2]; po): 99% |

| Compound | IC50 [1, 4] | ED50 ([3]; Table I) | IC50 [1, 6] | also measured |
| --- | --- | --- | --- | --- |
| Cc1nnc2n1-c1ccc(C#CCn3c(=O)oc4ccccc43)cc1C(c1ccccc1Cl)=NC2 |  |  | 0.02 µM | inhibition in vivo at 3 mg/kg ([2]; po): 91% |
| Cc1nnc2n1-c1ccc(C#CCn3cnc4ccccc43)cc1C(c1ccccc1Cl)=NC2 |  |  | 0.015 µM |  |
| Cc1nnc2n1-c1ccc(C#CCN3C(=O)CSc4ccccc43)cc1C(c1ccccc1F)=NC2 |  |  |  | inhibition in vivo at 3 mg/kg ([2]; po): 99%; % inhibition of bronchoconstriction [3]: 99% |
| Cc1nnc2n1-c1ccc(C#CCN3C(=O)COc4ccccc43)cc1C(c1ccccc1F)=NC2 |  |  |  | inhibition in vivo at 3 mg/kg ([2]; po): 98%; % inhibition of bronchoconstriction [3]: 100% |
| Cc1nnc2n1-c1ccc(C#CCn3cnc4ccccc4c3=O)cc1C(c1ccccc1F)=NC2 |  |  | 0.07 µM |  |
| Cc1nnc2n1-c1ccc(C#CCn3c(C)nc4ccccc4c3=O)cc1C(c1ccccc1F)=NC2 |  |  | 0.05 µM |  |
| Cc1nnc2n1-c1ccc(C#CCN3C(=O)C(=O)c4ccccc43)cc1C(c1ccccc1Cl)=NC2 |  |  | 0.35 µM | % inhibition of bronchoconstriction [3]: 100% |
| Cc1nnc2n1-c1ccc(C#CCN3C(=O)Cc4ccccc43)cc1C(c1ccccc1Cl)=NC2 |  |  | < 0.01 µM |  |
| Cc1nnc2n1-c1ccc(C#CCN3C(=O)CN(C)C(=O)c4ccccc43)cc1C(c1ccccc1F)=NC2 |  |  | 0.16 µM |  |
| Cc1nnc2n1-c1ccc(C#CCOc3cccnc3)cc1C(c1ccccc1Cl)=NC2 |  |  | 0.13 µM | ED50 ([3]; Table II): 0.005 mg/kg |
| Cc1nnc2n1-c1ccc(C#CCN3C(=O)C4CCCN4C3=O)cc1C(c1ccccc1F)=NC2 (centres unmarked) |  |  | 0.2 µM | inhibition in vivo at 3 mg/kg ([2]; po): 99% |
| Cc1nnc2n1-c1ccc(C#CCN3C(=O)c4ccccc4S3(=O)=O)cc1C(c1ccccc1F)=NC2 |  |  | 0.15 µM |  |
| Cc1nnc2n1-c1ccc(C#CCN3Cc4ccccc4C3=O)cc1C(c1ccccc1F)=NC2 |  |  | 0.225 µM | inhibition in vivo at 3 mg/kg ([2]; po): 100% |
| Cc1nnc2n1-c1ccc(C#CCn3nc4ccccn4c3=O)cc1C(c1ccccc1F)=NC2 |  |  | 0.35 µM | inhibition in vivo at 3 mg/kg ([2]; po): 43% |
| Cc1nnc2n1-c1ccc(C#CCn3ncc4ccccc43)cc1C(c1ccccc1F)=NC2 |  |  | < 0.01 µM |  |
| Cc1nnc2n1-c1ccc(C#CCN3C(=O)C4CC=CCC4C3=O)cc1C(c1ccccc1F)=NC2 (centres unmarked) |  |  | 0.05 µM | inhibition in vivo at 3 mg/kg ([2]; po): 99% |
| Cc1nnc2n1-c1ccc(C#CCOc3ccccc3)cc1C(c1ccccc1Cl)=NC2 |  |  | < 0.01 µM | inhibition in vivo at 0.3 mg/kg [2, 7]: 37% |
| Cc1nnc2n1-c1ccc(C#CCN3C(=O)Cc4ccccc43)cc1C(c1ccccc1F)=NC2 |  |  | < 0.01 µM | inhibition in vivo at 0.3 mg/kg [2, 7]: 32% |
| Cc1nnc2n1-c1ccc(C#CCn3ccc4ccccc43)cc1C(c1ccccc1F)=NC2 |  |  |  | ED50 ([2]; po, Table II): > 0.3 mg/kg |
| Cc1nnc2n1-c1ccc(C#CCn3c(=O)c4c(ncn4C)n(C)c3=O)cc1C(c1ccccc1F)=NC2 |  |  |  | ED50 ([2]; po, Table II): > 0.3 mg/kg |
| Cc1nnc2n1-c1ccc(C#CCCN3C(=O)c4ccccc4C3=O)cc1C(c1ccccc1F)=NC2 |  |  |  | inhibition in vivo at 0.3 mg/kg [2, 7]: 54% |
| O=C1c2ccccc2C(=O)N1CC#Cc1ccc2c(c1)C(c1ccccc1F)=NCc1nnc(C(F)(F)F)n1-2 |  |  |  | ED50 ([2]; po, Table II): 0.3 mg/kg; ED50 ([3]; Table II): 0.44 mg/kg |
| Cc1nnc2n1-c1ccc(C#CCN3C(=O)CCc4ccccc43)cc1C(c1ccccc1F)=N[C@H]2C |  |  | 0.006 µM | ED50 ([3]; Table II): 0.008 mg/kg |
